# Laboratory results published in US9518046B2 (Calitor Sciences, LLC, priority 2015, dated 2016).
# Assay: Pharmacokinetics after intravenous and oral administration in rats
# Assay type: in vivo
# Details: Rats; iv dosing; dose 1 mg/kg (0.5 for Ex. 1, 10, 11, 35; 0.48 for Ex. 24)
# Procedure: The LC/MS/MS system used in the analysis consists of an Agilent 1200 Series vacuum degasser, binary pump, well-plate autosampler, thermostatted column compartment, the Agilent G6430 Triple Quadrupole Mass Spectrometer with an electrosprayionization (ESI) source. Quantitative analysis was carried out using MRM mode. The parameters for MRM transitions are in the Table A.
# An Agilent XDB-C18, 2.1×30 mm, 3.5 M column was used for the analysis. 5 L of the samples were injected. Analysis condition: The mobile phase was 0.1% formic acid in water (A) and 0.1% formic acid in methanol (B). The flow rate was 0.4 mL/min. And the gradient of Mobile phase was in the Table B.
# Alternatively, an Agilent 6330 series LC/MS/MS spectrometer equipped with G1312A binary pumps, a G1367A autosampler and a G1314C UV detector were used in the analysis. An ESI source was used on the LC/MS/MS spectrometer. The analysis was done in positive ion mode as appropriate and the MRM transition for each analyte was optimized using standard solution. A Capcell MP-C18 100×4.6 mm I.D., […] column (Phenomenex, Torrance, Calif., USA) was used during the analysis. The mobile phase was 5 mM ammonia acetate, 0.1% MeOH in water (A): 5 mM ammonia acetate, 0.1% MeOH in acetonitrile (B) (70:30, v/v). The flow rate was 0.6 mL/min. Column was maintained at ambient temperature. 20 μL of the samples were injected.
# The compounds disclosed herein are assessed in pharmacokinetic studies in mice, rats, dogs or monkeys. The compounds are administered as a water solution, 2% HPMC+1% TWEEN®80 in water solution, 5% DMSO+5% solutol in saline, 4% MC suspension or capsule. For the intravenous administration, the animals are generally given at 1 or 2 mg/kg dose. For the oral (p.o.) dosing, mice and rats are generally given 5 or 10 mg/kg dose, and dogs and monkeys are generally given 10 mg/kg dose. The blood samples (0.3 mL) are drawn at 0.25, 0.5, 1.0, 2.0, 3.0, 4.0, 6.0, 8.0, 12 and 24 h time points or 0.083, 0.25, 0.5, 1.0, 2.0, 4.0, 6.0, 8.0 and 24 h time points and centrifuged at 3,000 or 4000 rpm for 2 to 10 min. The plasma solutions are collected, stored at −20° C. or −70° C. until analyzed by LC/MS/MS as described above.
row,SMILES,CL/F
1,"CC[C@H](Nc1ncnc(N)c1-c1nnc(C)o1)c1nc2cccc(F)c2c(=O)n1C1CC1 [Ex. 25, (S)-2-(1-((6-amino-S-(5-methyl-1,3,4-oxadiazol-2-yl)pyrimidin-4-yl)amino)-propyl)-3-cyclopropyl-5-fluoroquinazolin-4(3H)-one]",75.7 mL/min/kg
2,"CC[C@H](Nc1ncnc(N)c1-c1ncn(C)n1)c1nc2cccc(F)c2c(=O)n1C1CC1 [Ex. 26, (S)-2-(1-((6-amino-5-(1-methyl-1H-1,2,4-triazol-3-yl)pyrimidin-4-yl)amino)propyl)-3-cyclopropyl-5-fluoroquinazolin-4(3H)-one]",37 mL/min/kg
3,"CC[C@H](Nc1ncnc(N)c1-c1ncn(C)n1)c1nc2cccc(Cl)c2c(=O)n1-c1ccccc1 [Ex. 32, (S)-2-(1-((6-amino-5-(1-methyl-H-1,2,4-triazol-3-yl)pyrimidin-4-yl)amino)-propyl)-5-chloro-3-phenylquinazolin-4(3H)-one]",43.3 mL/min/kg
4,"Cc1nc(-c2c(N)ncnc2N[C@@H](C)c2nc3cccc(Cl)c3c(=O)n2C2CC2)no1 [Ex. 33, (S)-2-(1-((6-amino-5-(5-methyl-1,2,4-oxadiazol-3-yl)pyrimidin-4-yl)amino)-ethyl)-5-chloro-3-cyclopropylquinazolin-4(3H)-one]",65.5 mL/min/kg
5,"CC[C@H](Nc1ncnc(N)c1-c1nnc(C)o1)c1nc2cccc(Cl)c2c(=O)n1-c1ccccc1C [Ex. 35, (S)-2-(1-((6-amino-5-(5-methyl-1,3,4-oxadiazol-2-yl)pyrimidin-4-yl)-amino)propyl)-5-chloro-3-(o-tolyl)quinazolin-4(3H)-one]",53 mL/min/kg
6,"CC[C@H](Nc1ncnc(N)c1-c1nc(C)no1)c1nc2cccc(C)c2c(=O)n1-c1ccccc1 [Ex. 37, (S)-2-(1-((6-amino-5-(3-methyl-1,2,4-oxadiazol-5-yl)pyrimidin-4-yl)amino)-propyl)-5-methyl-3-phenylquinazolin-4(3H)-one]",67.5 mL/min/kg
7,"CC[C@H](Nc1ncnc(N)c1-c1nnc(C)o1)c1nc2cccc(C)c2c(=O)n1-c1ccccc1 [Ex. 38, (S)-2-(1-((6-amino-5-(5-methyl-1,3,4-oxadiazol-2-yl)pyrimidin-4-yl)amino)-propyl)-5-methyl-3-phenylquinazolin-4(3H)-one]",71.3 mL/min/kg
8,"CC[C@H](Nc1ncnc(N)c1-c1nc(C)no1)c1nc2cccc(F)c2c(=O)n1-c1ccccc1 [Ex. 39, (S)-2-(1-((6-amino-5-(3-methyl-1,2,4-oxadiazol-5-yl)pyrimidin-4-yl)amino)-propyl)-5-fluoro-3-phenylquinazolin-4(3H)-one]",51.8 mL/min/kg
9,"CC[C@H](Nc1ncnc(N)c1-c1nnc(C)o1)c1nc2cccc(F)c2c(=O)n1-c1ccccc1 [Ex. 40, (S)-2-(1-((6-amino-5-(5-methyl-1,3,4-oxadiazol-2-yl)pyrimidin-4-yl)amino)-propyl)-5-fluoro-3-phenylquinazolin-4(3H)-one]",57.3 mL/min/kg
10,"Cc1noc(-c2c(N)ncnc2N[C@@H](C)c2nc3cccc(Cl)c3c(=O)n2C2CC2)n1 [Ex. 41, (S)-2-(1-((6-amino-5-(3-methyl-1,2,4-oxadiazol-5-yl)pyrimidin-4-yl)amino)-ethyl)-5-chloro-3-cyclopropylquinazolin-4(3H)-one]",84.3 mL/min/kg
11,"C[C@H](Nc1ncnc(N)c1-c1nnn(C)n1)c1nc2cccc(Cl)c2c(=O)n1C1CC1 [Ex. 42, (S)-2-(1-((6-amino-5-(2-methyl-2H-tetrazol-5-yl)pyrimidin-4-yl)amino)ethyl)-5-chloro-3-cyclopropylquinazolin-4(3H)-one]",82 mL/min/kg
12,"CC[C@H](Nc1ncnc(N)c1-c1nnn(C)n1)c1nc2cccc(F)c2c(=O)n1-c1ccccc1 [Ex. 43, (S)-2-(1-((6-amino-5-(2-methyl-2H-tetrazol-5-yl)pyrimidin-4-yl)amino)-propyl)-5-fluoro-3-phenylquinazolin-4(3H)-one]",36.8 mL/min/kg
13,"C[C@H](Nc1ncnc(N)c1-c1ncn(C)n1)c1nc2cccc(Cl)c2c(=O)n1C1CC1 [Ex. 44, (S)-2-(1-((6-amino-5-(1-methyl-1H-1,2,4-triazol-3-yl)pyrimidin-4-yl)amino)-ethyl)-5-chloro-3-cyclopropylquinazolin-4(3H)-one]",73.7 mL/min/kg
14,CC[C@H](Nc1ncnc(N)c1-c1nc(COC)n(C)n1)c1nc2cccc(Cl)c2c(=O)n1C1CC1 [Ex. 46],55.8 mL/min/kg
15,"CC[C@H](Nc1ncnc(N)c1-c1ccon1)c1nc2cccc(F)c2c(=O)n1C1CC1 [Ex. 48, (S)-2-(1-((6-amino-5-(isoxazol-3-yl)pyrimidin-4-yl)amino)propyl)-3-cyclopropyl-5-fluoroquinazolin-4(3H)-one]",67.3 mL/min/kg
16,"CC[C@@H](Nc1ncnc(N)c1-c1ccon1)c1nc2cccc(Cl)c2c(=O)n1C1CC1 [Ex. 49, (R)-2-(1-((6-amino-5-(isoxazol-3-yl)pyrimidin-4-yl)amino)propyl)-5-chloro-3-cyclopropylquinazolin-4(3H)-one]",85.3 mL/min/kg
17,"CC[C@H](Nc1ncnc(N)c1-c1ncn(C)n1)c1nc2cccc(Cl)c2c(=O)n1-c1ccc(F)cc1 [Ex. 50, (S)-2-(1-((6-amino-5-(1-methyl-1H-1,2,4-triazol-3-yl)pyrimidin-4-yl)amino)propyl)-5-chloro-3-(4-fluorophenyl)quinazolin-4(3H)-one]",86.7 mL/min/kg
18,"CC[C@H](Nc1ncnc(N)c1-c1ccn(C)n1)c1nc2cccc(Cl)c2c(=O)n1C1CC1 [Ex. 51, (S)-2-(1-((6-amino-5-(1-methyl-1H-pyrazol-3-yl)pyrimidin-4-yl)amino)propyl)-5-chloro-3-cyclopropylquinazolin-4(3H)-one]",27.3 mL/min/kg
19,"CC[C@H](Nc1ncnc(N)c1-c1nc(C)co1)c1nc2cccc(Cl)c2c(=O)n1C1CC1 [Ex. 52, (S)-2-(1-((6-amino-5-(4-methyloxazol-2-yl)pyrimidin-4-yl)amino)propyl)-5-chloro-3-cyclopropylquinazolin-4(3H)-one]",85.7 mL/min/kg
20,"CC[C@H](Nc1ncnc(N)c1-c1ncn(C)n1)c1nc2cccc(Cl)c2c(=O)n1C1CC1 [Ex. 53, (S)-2-(1-((6-amino-5-(1-methyl-1H-1,2,4-triazol-3-yl)pyrimidin-4-yl)amino)-propyl)-5-chloro-3-cyclopropylquinazolin-4(3H)-one]",38.2 mL/min/kg
21,"CCc1noc(-c2c(N)ncnc2N[C@@H](CC)c2nc3cccc(Cl)c3c(=O)n2C2CC2)n1 [Ex. 56, (S)-2-(1-((6-amino-5-(3-ethyl-1,2,4-oxadiazol-5-yl)pyrimidin-4-yl)amino)-propyl)-5-chloro-3-cyclopropylquinazolin-4(3H)-one]",74.7 mL/min/kg
22,"CC(C)c1noc(-c2c(N)ncnc2N[C@@H](C)c2nc3cccc(Cl)c3c(=O)n2C2CC2)n1 [Ex. 57, (S)-2-(1-((6-amino-5-(3-isopropyl-1,2,4-oxadiazol-5-yl)pyrimidin-4-yl)amino)-ethyl)-5-chloro-3-cyclopropylquinazolin-4(3H)-one]",83 mL/min/kg
23,"CC[C@H](Nc1ncnc(N)c1-c1nc(C(N)=O)n(C)n1)c1nc2cccc(Cl)c2c(=O)n1C1CC1 [Ex. 58, (S)-3-(4-amino-6-((1-(5-chloro-3-cyclopropyl-4-oxo-3,4-dihydroquinazolin-2-yl)propyl)amino)pyrimidin-5-yl)-1-methyl-1H-1,2,4-triazole-5-carboxamide]",26.2 mL/min/kg
24,"CC(C)c1nc(-c2c(N)ncnc2N[C@@H](C)c2nc3cccc(Cl)c3c(=O)n2C2CC2)no1 [Ex. 59, (S)-2-(1-((6-amino-5-(5-isopropyl-1,2,4-oxadiazol-3-yl)pyrimidin-4-yl)amino)ethyl)-5-chloro-3-cyclopropylquinazolin-4(3H)-one]",73.7 mL/min/kg
25,"CCc1nc(-c2c(N)ncnc2N[C@@H](C)c2nc3cccc(Cl)c3c(=O)n2C2CC2)no1 [Ex. 61, (S)-2-(1-((6-amino-5-(5-ethyl-1,2,4-oxadiazol-3-yl)pyrimidin-4-yl)amino)ethyl)-5-chloro-3-cyclopropylquinazolin-4(3H)-one]",97.5 mL/min/kg
26,CC[C@H](Nc1ncnc(N)c1-c1nc(C)no1)c1nc2cccc(Cl)c2c(=O)n1[C@@H]1C[C@@H]1F [Ex. 62],71.8 mL/min/kg
